Assay results as given in patent US10501817B2, “Process for the manufacture of co-crystallized sucrose natural sweeteners and the products thereof” (IMPERIAL SUGAR COMPANY, priority 2010, dated 2019).

How the values were obtained:
[1] = cited from earlier work; for times sweeter than sucrose: sweetness relative to sucrose/sugar
[2] = Taste testing of sweetener compositions in water by trained descriptive panel; type: in vivo, human; settings: in water at room temperature; 12-point scale; aftertaste at 30 seconds
From the text: A panel of trained and experienced descriptive panelists (Food Marketing Support Services, Inc.) tasted, described and documented sensory behavior of selected sweetener compositions in water at ambient (room) temperature. The sweetener samples tested were: sugar (100%; Imperial Sugar); Truvia (100%), a consumer brand Stevia sweetener containing a mixture erythritol and Rebiana; Reb-A 97 (100%; Pure Circle), a sugar (75% reduction)—rebaudioside A blended or granulized mixture; a sugar (50% reduction)—rebaudioside A blended or granulized mixture; a sugar/rebaudioside A co-crystallization product in accordance with the instantly described process and the resultant product with a 50% calorie reduction (Co-Crystal (50% Reduction)); and, a sugar/rebaudioside A co-crystallization product in accordance with the instantly described process and the resultant product with a 75% calorie reduction (Co-Crystal (75% Reduction).
Sample Preparation: On the day of the testing panel, a predetermined weight of sugar or sweetener was weighed out. […]
The beaker is gently swirled five (5) times, and the watch glass cover is removed. […] Sweetness was evaluated relative to standardized concentrations of sucrose in water. Samples were also evaluated for character nuances and quantifying attribute intensities such as residual mouth sensations and aftertastes, using a 12-point scale. […]

Row | Structure (SMILES) | times sweeter than sucrose [1] | flavor/taste profile compared with pure sugar [2] | astringency, bitterness and aftertaste among diterpenoid glycoside sweeteners of Stevia extracts ([1]; in vivo)
1 | C=C1C[C@@]23CC[C@H]4[C@@](C)(CCC[C@@]4(C)C(=O)O[C@@H]4O[C@H](CO)[C@@H](O)[C@H](O)[C@H]4O)[C@@H]2CC[C@]1(O[C@@H]1O[C@H](CO)[C@@H](O)[C@H](O)[C@H]1O[C@@H]1O[C@H](CO)[C@@H](O)[C@H](O)[C@H]1O)C3 [stevioside] | about 200 times | – | –
2 | C=C1C[C@@]23CC[C@H]4[C@@](C)(CCC[C@@]4(C)C(=O)O[C@@H]4O[C@H](CO)[C@@H](O)[C@H](O)[C@H]4O)[C@@H]2CC[C@]1(O[C@@H]1O[C@H](CO)[C@@H](O)[C@H](O[C@@H]2O[C@H](CO)[C@@H](O)[C@H](O)[C@H]2O)[C@H]1O[C@@H]1O[C@H](CO)[C@@H](O)[C@H](O)[C@H]1O)C3 [rebaudioside A] | 200-300 times | most extreme flavor profile across the array | the least astringent, the least bitter, and with the least persistent aftertaste
